From US20210008161A1, “METHODS AND COMPOSITIONS FOR IMPROVED HOMOLOGY DIRECTED REPAIR” (CRISPR THERAPEUTICS AG, priority 2019, published 2021) come the findings set out here.

One test relates to patient-derived PBMCs. Briefly: SCD gene correction by HDR and INDEL frequency by NGS in patient-derived PBMCs. In kind it is cell-based, human. On the procedure: It was further evaluated if editing of patient-derived PBMCs in the presence of i53 would yield high levels of correction of the HBB gene. […] The PBMCs were expanded in StemSpan SFEM II (1×)+StemSpan CC100 (1×)+Dexamethasone 1 μM+hEPO 2 IU/mL at 37° C. under normoxic conditions (20% O2 concentration). The cells were edited following five days of in vitro culture. […] On day 8, the cells were transferred to Phase 1 media, and differentiation to erythrocytes was performed through day 18 as described above. Efficiency of HDR at the HBB gene locus was evaluated on day 12 using the NGS assay described in Example 4. Also evaluated was the frequency of INDELs at the R02 cut-site as measured by NGS.

In test [1] the test system is CD34-expressing LT-HSPCs derived from human patients with sickle cell disease. Briefly: SCD gene correction (E6V to E6) by HDR and INDEL frequency by NGS in patient-derived cells.
Description: The effect of i53 on HDR efficiency was evaluated in cells derived from patients with a sickle cell mutation in the HBB gene. Specifically, CD34-expressing LT-HSPCs derived from human patients with sickle cell disease were edited with SpCas9, R02 guide, and AAV.323 encoding a correction to the E6V mutation in the HBB gene.
Briefly, CD34-expressing LT-HSPCs were derived from plerixafor+GCSF-dual mobilized peripheral blood obtained from a human donor with sickle cell disease. The cells were seeded in Phase I media at a cell density of 2×10^5 cells/mL. Cells were cultured at 37° C. under normoxic conditions (i.e., oxygen 20%).
Editing of cells was performed following two days of in vitro culture. Briefly, 5×10^5 cells were electroporated with RNP containing 20 μg SpCas9 and 20 μg R02 sgRNA, AAV.323 at a dose of 10,000 MOI, and 1 μg mRNA encoding i53. The cells were incubated with AAV.323 for 1 hour prior to electroporation. The cells were edited by electroporation with R02+AAV.323+i53 mRNA and compared to control cells edited with R02 only, R02+AAV.323, or cells exposed to electroporation without RNP or AAV editing components (mock EP).
The efficiency of gene correction by HDR repair at the HBB gene locus was evaluated by NGS assay as described in Example 3. Frequency of INDELs at the R02 cut site was evaluated by NGS analysis. […]

Turning to “i53: polypeptide inhibitor of 53BP1 (SEQ ID NO: 70), introduced as an mRNA-encoded protein (ORF SEQ ID NO: 69)”, in the test on patient-derived PBMCs (compared to control cells, FIG. 35B), the “frequency of INDELs” value is “reduced”. Also, the “frequency of correction of the HBB gene by HDR repair” value with patient-derived PBMCs (day 12, FIG. 35A) is reported as “approximately 60%”. The “level of HDR repair and frequency of INDELs in HBB, PBMCs vs CD34-expressing LT-HSPCs” value in the test on patient-derived PBMCs (edited in the presence of i53) was “comparable”. Further, in test [1] (R02 RNP + AAV.323 + 1 μg i53 mRNA, FIG. 32A, 34B), the “incorporation of the E6V→E6 gene correction” value is 66%. In addition, the “fold lower frequency of INDELs at the R02 cut site” value in test [1] (compared to cells edited with RNP+AAV.323 alone, FIG. 32B) is given as 1.9 fold.
